Assay results as given in patent US10865384B2, “2,4,5-tri-substituted azole-based casein kinase 1 inhibitors as inducers for cardiomyogenesis” (AGENCY FOR SCIENCE, TECHNOLOGY AND RESEARCH, priority 2014, dated 2020).
Where two headings read alike, the source gives them in different places.

What was measured:
[1] = target: p38α MAPK (Homo sapiens (Human), UniProt Q16539); assay: HitHunter p38 MAP kinase binding assay
[2] = target: CK1δ (Homo sapiens (Human), UniProt P48730); assay: LanthaScreen Eu kinase binding assay, CK1δ
[3] = target: CK1ϵ (Homo sapiens (Human), UniProt P49674); assay: LanthaScreen Eu kinase binding assay, CK1ϵ
[4] = tested on: hESC3 Nkx2.5eGFP/w cells; assay: Differentiation in 96-U bottom ultra-low attachment well plates, GFP area imaging; format: cell-based, human; conditions: 5 μM; for Average GFP %: after CHIR99021, read on day 14, GFP area over embryoid body size; for Average GFP μm^2 / Average Area μm^2: day 14; for Average Area μm^2: embryoid body size
[5] = tested on: H3 hESCs Nkx2.5eGFP/w; assay: High yield cardiomyocyte differentiation after 24 h CHIR99021 pre-treatment; format: cell-based, human; conditions: CHIR99021 only; CHIR99021 with SB203580 (days 1-8); CHIR99021 with IM-31 (days 4-8)
[6] = bound given in μM, read-out: p38α MAPK IC50

Chain of CK1δ (P48730 whole entry): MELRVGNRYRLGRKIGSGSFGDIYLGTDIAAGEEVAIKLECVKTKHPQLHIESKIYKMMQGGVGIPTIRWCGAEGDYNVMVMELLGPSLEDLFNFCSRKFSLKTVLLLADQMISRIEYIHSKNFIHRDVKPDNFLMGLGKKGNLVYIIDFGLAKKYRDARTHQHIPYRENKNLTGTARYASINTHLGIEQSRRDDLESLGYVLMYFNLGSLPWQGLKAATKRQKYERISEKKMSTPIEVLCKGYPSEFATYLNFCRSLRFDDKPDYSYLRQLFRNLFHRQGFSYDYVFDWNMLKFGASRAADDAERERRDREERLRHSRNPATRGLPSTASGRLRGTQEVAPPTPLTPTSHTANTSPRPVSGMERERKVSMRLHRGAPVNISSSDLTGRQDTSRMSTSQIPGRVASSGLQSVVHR
Chain of p38α MAPK (Q16539 whole entry, looked up): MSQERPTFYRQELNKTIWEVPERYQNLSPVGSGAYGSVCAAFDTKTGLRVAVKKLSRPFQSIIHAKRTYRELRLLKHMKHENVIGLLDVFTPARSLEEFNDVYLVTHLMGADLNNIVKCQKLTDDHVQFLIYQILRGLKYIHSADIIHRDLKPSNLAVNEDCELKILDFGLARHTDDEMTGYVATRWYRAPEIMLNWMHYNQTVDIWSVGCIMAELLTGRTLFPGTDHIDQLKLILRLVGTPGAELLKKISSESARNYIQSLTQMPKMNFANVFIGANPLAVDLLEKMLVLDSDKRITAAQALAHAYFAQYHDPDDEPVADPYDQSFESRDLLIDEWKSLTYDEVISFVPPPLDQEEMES
Chain of CK1ϵ (P49674 whole entry): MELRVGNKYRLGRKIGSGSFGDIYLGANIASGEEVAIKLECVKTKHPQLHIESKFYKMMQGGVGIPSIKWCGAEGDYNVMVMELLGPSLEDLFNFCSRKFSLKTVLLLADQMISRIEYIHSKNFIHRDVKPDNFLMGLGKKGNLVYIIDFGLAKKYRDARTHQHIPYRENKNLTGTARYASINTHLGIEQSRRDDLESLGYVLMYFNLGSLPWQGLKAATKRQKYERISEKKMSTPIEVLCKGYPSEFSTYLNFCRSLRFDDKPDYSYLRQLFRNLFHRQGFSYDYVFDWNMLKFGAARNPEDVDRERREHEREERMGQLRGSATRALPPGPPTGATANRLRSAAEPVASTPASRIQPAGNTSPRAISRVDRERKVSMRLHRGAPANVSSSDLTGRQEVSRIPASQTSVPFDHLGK

| SMILES | IC50 ([1]; read-out: p38α MAPK IC50 ± SEM) | IC50 ([2]; Table 3, read-out: IC50 CK1δ) | IC50 ([2]; read-out: CK1δ IC50 ± SEM) | IC50 ([3]; Table 3, read-out: IC50 Ck1ε) | IC50 ([3]; read-out: CK1ϵ IC50 ± SEM) | inhibition at 1 µM [2] | CK1ϵ inhibition at 1 μM [3] | also measured |
| --- | --- | --- | --- | --- | --- | --- | --- | --- |
| Fc1ccc(-c2nc(-c3ccccc3F)[nH]c2-c2ccncc2)cc1 [IM-30, 4-(2-(2-fluorophenyl)-4(5)-(4-fluorophenyl)-1H-imidazol-5(4)-yl)pyridine] | 0.02 ± 0.004 µM | 32 nM | 32 ± 4 nM | 32 nM | 32 ± 4 nM |  |  | Cardiogenic properties ([4]; at specific time course (induction day 2 or 3)): higher cardiogenic properties as SB203580 and IWP-2; Average GFP % ([4]; Induction Day 2): 32.8%; Average GFP μm^2 ([4]; Induction Day 2): 250.1 μm^2; Average Area μm^2 ([4]; Induction Day 2): 816.0 μm^2; Average GFP % ([4]; Induction Day 3): 36.5%; Average GFP μm^2 ([4]; Induction Day 3): 354.1 μm^2; Average Area μm^2 ([4]; Induction Day 3): 968.7 μm^2 |
| C[S+]([O-])c1ccc(-c2nc(-c3ccncc3)c(-c3ccc(F)cc3)o2)cc1 (stereo not shown) [OZ-12, 5-(4-fluorophenyl)-2-(4-(methylsulfinyl)phenyl)-4-(pyridin-4-yl)oxazole] |  |  |  |  |  | 34% |  | IC50 [1, 6]: > 5 µM; inhibition at 1 µM [3]: 51% |
| Cc1cccc(-c2nc(-c3ccc4ccccc4c3)[nH]c2-c2ccncc2)c1 [IM-01, 4-(2-(naphthalen-2-yl)-4(5)-(m-tolyl)-1H-imidazol-5(4)-yl)pyridine] | 0.098 ± 0.011 µM |  |  |  |  | 5% |  | inhibition at 1 µM [3]: 6% |
| Cc1ccc(-c2nc(-c3ccccc3F)[nH]c2C2=CCOCC2)cc1 [IM-21, 5(4)-(3,6-dihydro-2H-pyran-4-yl)-2-(2-fluorophenyl)-4(5)-(p-tolyl)-1H-imidazole] | 3.37 ± 0.824 µM |  |  |  |  |  | No inhibition at 1 μM | CK1δ inhibition at 1 μM [2]: No inhibition at 1 μM |
| Cc1cccc(-c2nc(-c3ccc(O)cc3)[nH]c2-c2ccncc2)c1 [IM-27] | 0.0084 ± 0.003 µM | 1280 nM | 1280 ± 828 nM | 411 nM | 411 ± 120 nM |  |  |  |
| Cc1cccc(-c2nc(-c3ccccc3F)[nH]c2-c2ccncc2)c1 [IM-19] | 0.0047 ± 0.0012 µM | 454 nM | 454 ± 28 nM | 150 nM | 150 ± 89 nM |  |  |  |
| Cc1cccc(-c2nc(-c3c(F)cccc3F)[nH]c2-c2ccncc2)c1 [IM-26] | 0.0043 ± 0.0017 µM | 78 nM | 78 ± 20 nM | 44 nM | 44 ± 5 nM |  |  |  |
| Cc1cccc(-c2nc(-c3ccc(O)cc3)[nH]c2C2=CCOCC2)c1 [IM-15, 4-(5(4)-(3,6-dihydro-2H-pyran-4-yl)-4(5)-(m-tolyl)-1H-imidazol-2-yl)phenol] | 0.033 ± 0.002 µM |  |  |  |  |  | No inhibition at 1 μM | CK1δ inhibition at 1 μM [2]: No inhibition at 1 μM |
| Cc1cccc(-c2nc(-c3ccccc3F)[nH]c2C2=CCOCC2)c1 [IM-06, 5(4)-(3,6-dihydro-2H-pyran-4-yl)-2-(2-fluorophenyl)-4(5)-(m-tolyl)-1H-imidazole] | 0.09 ± 0.02 µM |  |  |  |  | 3% | No inhibition at 1 μM |  |
| Cc1cccc(-c2nc(-c3ccc([S+](C)[O-])cc3)[nH]c2-c2ccncc2)c1 (stereo not shown) [IM-28] | 0.024 ± 0.009 µM | 708 nM | 708 ± 43 nM | 274 nM | 274 ± 7 nM |  |  |  |
| Cc1cccc(-c2nc(-c3ccc4ccccc4c3F)[nH]c2-c2ccncc2)c1 [IM-04] | 0.02 ± 0.007 µM | 490 nM | 490 ± 66 nM | 277 nM | 277 ± 40 nM |  |  |  |
| Cc1cccc(-c2nc(-c3ccccc3)[nH]c2C2=CCOCC2)c1 [IM-11, 5(4)-(3,6-dihydro-2H-pyran-4-yl)-2-phenyl-4(5)-(m-tolyl)-1H-imidazole] | 0.526 ± 0.137 µM |  |  |  |  |  | No inhibition at 1 μM | CK1δ inhibition at 1 μM [2]: No inhibition at 1 μM |
| C[S+]([O-])c1ccc(-c2nc(-c3ccc(F)cc3)c(-c3ccncc3)[nH]2)cc1 (stereo not shown) [SB203580, reference compound] |  |  |  |  |  |  |  | Average beating frequency [5]: 25-30 beats per minute; Beat count (percentage of EBs contracting within 10 s) [5]: over 75%; Beating area [5]: > 5 mm^2; Average GFP % ([4]; Induction Day 2): 34.6%; Average GFP μm^2 ([4]; Induction Day 2): 217.8 μm^2; Average Area μm^2 ([4]; Induction Day 2): 655.4 μm^2; Average GFP % ([4]; Induction Day 3): 3.7%; Average GFP μm^2 ([4]; Induction Day 3): 40.2 μm^2; Average Area μm^2 ([4]; Induction Day 3): 814.2 μm^2 |
| Cc1cccc(-c2nc(-c3ccccc3O)[nH]c2C2=CCOCC2)c1 [IM-14, 2-(5(4)-(3,6-dihydro-2H-pyran-4-yl)-4(5)-(m-tolyl)-1H-imidazol-2-yl)phenol] |  |  |  |  |  |  |  | IC50 [1, 6]: > 5 µM; CK1δ inhibition at 1 μM [2]: No inhibition at 1 μM; inhibition at 1 µM [3]: 3% |
| Cc1cccc(-c2nc(-c3ccccc3Cl)[nH]c2C2=CCOCC2)c1 [IM-12, 2-(2-chlorophenyl)-5(4)-(3,6-dihydro-2H-pyran-4-yl)-4(5)-(m-tolyl)-1H-imidazole] | 0.043 ± 0.002 µM |  |  |  |  | 23% |  | inhibition at 1 µM [3]: 10% |
| Fc1ccc(-c2nc(-c3c(F)cccc3F)[nH]c2C2=CCOCC2)cc1 [IM-23, 2-(2,6-difluorophenyl)-5(4)-(3,6-dihydro-2H-pyran-4-yl)-4(5)-(4-fluorophenyl)-1H-imidazole] | 0.055 ± 0.014 µM | 548 nM | 548 ± 116 nM | 751 nM | 751 ± 168 nM |  |  |  |
| Cc1cccc(-c2nc(-c3ccccc3Br)[nH]c2C2=CCOCC2)c1 [IM-13, 2-(2-bromophenyl)-5(4)-(3,6-dihydro-2H-pyran-4-yl)-4(5)-(m-tolyl)-1H-imidazole] | 0.019 ± 0.002 µM |  |  |  |  | 23% |  | inhibition at 1 µM [3]: 23% |
| Cc1cccc(-c2nc(-c3ccc([N+](=O)[O-])cc3)[nH]c2C2=CCOCC2)c1 [IM-17, 5(4)-(3,6-dihydro-2H-pyran-4-yl)-2-(4-nitrophenyl)-4(5)-(m-tolyl)-1H-imidazole] | 0.02 ± 0.002 µM |  |  |  |  | 17% | No inhibition at 1 μM |  |
| Fc1c(-c2nc(-c3cccc(C(F)(F)F)c3)c(-c3ccncc3)[nH]2)ccc2ccccc12 [IM-02, 4-(2-(1-fluoronaphthalen-2-yl)-4(5)-(3-(trifluoromethyl)phenyl)-1H-imidazol-5(4)-yl)pyridine] | 2.66 ± 0.466 µM |  |  |  |  |  | No inhibition at 1 μM | CK1δ inhibition at 1 μM [2]: No inhibition at 1 μM |
| Cc1cccc(-c2nc(-c3ccc([S+](C)[O-])cc3)[nH]c2C2=CCOCC2)c1 (stereo not shown) [IM-16] | 0.073 ± 0.021 µM | 2540 nM | 2540 nM | 5610 nM | 5610 ± 319 nM |  |  |  |
| C[S+]([O-])c1ccc(-c2nc(-c3ccc(F)cc3)c(C3=CCOCC3)[nH]2)cc1 (stereo not shown) [IM-25] | 0.454 ± 0.067 µM | 1490 nM | 1490 ± 285 nM | 5890 nM | 5890 ± 180 nM |  |  |  |
| Cc1cccc(-c2nc(-c3c(F)cccc3F)[nH]c2C2=CCOCC2)c1 [IM-18, 2-(2,6-difluorophenyl)-5(4)-(3,6-dihydro-2H-pyran-4-yl)-4(5)-(m-tolyl)-1H-imidazole] | 0.014 ± 0.002 µM |  |  |  | 1240 ± 437 nM | 3% |  |  |
| COc1ccc2cc(-c3nc(-c4cccc(C)c4)c(C4=CCOCC4)[nH]3)ccc2c1 [IM-09, 5(4)-(3,6-dihydro-2H-pyran-4-yl)-2-(6-methoxynaphthalen-2-yl)-4(5)-(m-tolyl)-1H-imidazole] | 2.35 ± 0.374 µM |  |  |  |  | 13% | No inhibition at 1 μM |  |
| Fc1ccc(-c2nc(-c3ccc4ccccc4c3F)[nH]c2C2=CCOCC2)cc1 [IM-22, 5(4)-(3,6-dihydro-2H-pyran-4-yl)-2-(1-fluoronaphthalen-2-yl)-4(5)-(4-fluorophenyl)-1H-imidazole] | 2.31 ± 0.714 µM |  |  |  |  | 14% | No inhibition at 1 μM |  |
